The results in this text go back to US6566096B2, “Mammalian EDG-7 receptor homologs” (NPS Allelix Corp., priority 1997, dated 2003).

The experiment deals with T1, HEDG-7 receptor (Homo sapiens, UniProt O95977, A140V/I378S).
T1 construct: it was desirable to isolate a full-length cDNA clone from a human source; expressed in transfected cells; host or cells: 293-EBNA cells (Invitrogen, Cat. R620-07), transiently transfected with pc3-hedg7#M10 (pcDNA3.1) and a 2x SRE-luciferase reporter
T1 sequence (O95977 1-384 A140V/I378S): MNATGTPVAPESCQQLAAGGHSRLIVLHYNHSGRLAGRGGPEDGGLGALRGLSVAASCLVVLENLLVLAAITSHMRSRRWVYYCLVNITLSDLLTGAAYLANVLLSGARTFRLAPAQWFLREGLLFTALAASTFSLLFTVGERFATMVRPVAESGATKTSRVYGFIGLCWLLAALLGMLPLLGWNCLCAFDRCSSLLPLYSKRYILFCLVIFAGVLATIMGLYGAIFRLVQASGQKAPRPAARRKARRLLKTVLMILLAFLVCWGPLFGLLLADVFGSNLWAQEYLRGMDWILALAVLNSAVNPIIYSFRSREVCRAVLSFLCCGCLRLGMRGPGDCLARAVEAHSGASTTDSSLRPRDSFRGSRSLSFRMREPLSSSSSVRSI
Nature of the experiment: SRE-luciferase reporter gene response in 293-EBNA cells transfected with pc3-hedg7#M10. It counts as cell-based. The settings on record: for Max. Fold: maximal luciferase fold response after subtracting endogenous response in pcDNA3-transfected cells; for Max. Fold / EMax (Percent) / HEDG7 activation (conclusion from dose response): 6 hr treatment; for EMax (Percent): relative efficacy; for EMax (Percent) / HEDG7 activation (conclusion from dose response) / SRE response (agonist specificity) / Rank (EMax): 293-EBNA cells transfected with pc3-hedg7#M10; for HEDG-7 agonist activity: summary statement in the description; for HEDG7 activation (conclusion from dose response): various concentrations; for SRE response (agonist specificity): 5 μM compound, serum-free medium; for Rank (EMax): rank of efficacy among sphingolipids tested. The protocol:
Miniprep DNA from 4 clones was tested by cotransfection into 293-EBNA cells (Invitrogen, Cat. R620-07) with a 2× SRE-Luciferase reporter gene constructed in-house. We previously determined that these cells are an ideal expression host for edg receptors that respond to sphingolipids, since only a single edg gene is expressed (the LPA receptor subtype […], see U.S. Ser. No. 08/997,803), under normal culture conditions. […] Thus, the low endogenous expression of previously identified S1P receptor subtypes (edg-1, edg-3, edg-4/H218) and hedg7 (determined here) permits overexpression and functional analysis of these receptors in a relatively unresponsive cell background. From this preliminary cotransfection experiment, the expression clone pC3-hEdg7#M10 was chosen for further analysis. The nucleotide sequence and amino acid sequence of the hedg-7 sequence from the pC3-hEdg7#M10 clone are shown in FIG. 1B and FIG. 2B, respectively. Furthermore, an alignment of the hedg-7 amino acid sequence from the pC3-hEdg7#M10 clone and from the genomic DNA sequence is shown in FIG. 3B.
Transient transfection protocol for 293-EBNA:
1) 100 mm plates of 293-EBNA with a confluency of −80% were used for transfection.
2) SRE Reporter Gene Cotransfection: Expression plasmid ([…]) and reporter plasmid (2× SREtk-p4Luc-zeo; 0.5 μg) DNA samples were combined and diluted in 750 μl of DMEM/F12 (serum-free media) and 20 μl Plus Reagent (Lipofectamine Plus Kit, Life Technologies Cat. 10964-013), and incubated at room temperature for 15 min.
3) 30 μl Lipofectamine Reagent (Lipofectamine Plus Kit) was diluted in 750 μl DMEM/F12. The diluted Lipofectamine was then combined with the DNA/Plus mixture and incubated at RT for 15 min.
4) The 293-EBNA plates were washed once with PBS, and 5 ml DMEM/F12 was added to each plate.
5) DNA/Plus/Lipofectamine mixture was added to each plate of 293-EBNA cells. The plates were left for 3 hr at 37° C. in a 5% CO2 incubator.
6) The transfection medium was replaced with DMEM/F12 containing 10% FBS to recover overnight.
2) Transfected cells were harvested by trypsinization and 20,000 cells per well were plated in 96-well Blackview plates coated with poly D-lysine (Becton Dickinson Labware, Cat. 40640). Medium was DMEM/F12 plus 0.15% FBS. No. cells were plated in the outside wells of the 96-well plate. Cells were returned to the incubator for 48 hr.
1) Media was removed and cells treated with compounds diluted in serum-free DMEM/F12 media and the following treatments: a) Untreated: Serum-free DMEM/F12; b) 10 μM S1P in DMEM/F12 medium.
2) The cells were treated 5 hr in the 37° C. incubator.
3) Luclite kit (Packard; Cat. 6016911) was used for luciferase assay. All reagents were brought to room temperature before use.
4) Media was removed from each well. 50 μl 0.5M HEPES pH 7.8, 1 mM MgCl2, 1 mM CaCl2 was added to all wells of 96-well plate.
5) Luclite substrate was made up and 50 μl substrate was added to each well as specified in the kit.
6) Plates were incubated at room temperature for 30 min.
7) After incubation, plates were counted in a 12-detector Packard Top Count on a program without dark delay.
To determine the agonist specificity of HEDG-7, 293-EBNA cells were transfected with pc3-hedg7#M10, serum-deprived as described above, and treated in serum-free medium with 5 μM concentrations of SPC, S1P, LPA, lysophosphatiylcholine (LPC), edelfosine, psychosine, anandamide or 2-arachidonylglycerol. Control cells were treated with serum-free medium alone, and the SRE response was expressed as fold induction relative to this control. After 5 hr of treatment, luciferase activity was measured.
Transfection of a HEDG7 expression vector pc3-hedg7#M10 was carried out using Lipofectamine Plus (Life Technologies, Cat. 10964-013) according to manufacturer's instructions. The next day, transfected cells were harvested by trypsinization and replated at 30,000 cells per well in poly-(D)lysine-coated 96-well plates in medium containing 0.15% FBS. […]
Background: Reporter assays use an easily measured gene product as a stand-in for the process of interest.

Where “and” joins values, the source holds several entries; their conditions need not be identical. Identical values can stand only once.

On to `CCCCCCCCCCCCC/C=C/[C@@H](O)C(N)CO[C@@H]1O[C@H](CO)[C@@H](O)[C@H](O)[C@@H]1O` (stereo partly drawn) [Glucospychosine, glucopsychosine], for which the “Max. Fold” value amounted to 1.00 Fold, the “EMax (Percent)” value came out at 0%, the HEDG-7 agonist activity result is “do not act as HEDG-7 agonists” and the “HEDG7 activation (conclusion from dose response)” value (“HEDG7 activation” below) is recorded as “failed to activate HEDG7 at nontoxic concentrations”.

For the compound `CCCCCCCCCCCCC/C=C/[C@@H](O)[C@@H](N)CO[C@@H]1O[C@H](CO)[C@H](O)[C@H](O)[C@H]1O` [Psychosine, psychosine], the “Max. Fold” value stood at 1.00 Fold, the “EMax (Percent)” value turned out to be 0%, the HEDG-7 agonist activity result is “do not act as HEDG-7 agonists” and the “HEDG7 activation” value is listed as “failed to activate HEDG7 at nontoxic concentrations”.

Turning to `CCCCCCCCCCCCC/C=C/[C@@H](O)[C@@H](N)COP(=O)(O)O` [S1P], the “Max. Fold” value is 3.59 Fold, the “Rank (EMax)” value was 1, the “EMax (Percent)” value is listed as 100% and the HEDG-7 agonist activity result is “agonists for HEDG-7”. The “HEDG7 activation” value was “full agonists”. Further, for the setting “5 hr”, the “SRE response (agonist specificity)” value was “robustly induced expression of the SRE reporter gene”. Moreover, under “10 μM S1P treatment, 5 hr, EBNA-293 cells transfected with pc3-hedg7#M10 and 2× SRE-Luciferase reporter, 2 independent experiments”, the SRE-Luciferase reporter response is 5.3 fold and 6.5 fold.

With `CCCCCCCCCCCCC/C=C/[C@@H](O)[C@@H](N)COP(=O)([O-])OCC[N+](C)(C)C` [SPC], the “Max. Fold” value is 3.59 Fold, the “Rank (EMax)” value is listed as 1, the “EMax (Percent)” value worked out at 100% and the HEDG-7 agonist activity entry was “agonists for HEDG-7”. Further, the “HEDG7 activation” value is given as “full agonists”. In addition, the “SRE response (agonist specificity)” value (5 hr) is “robustly induced expression of the SRE reporter gene”.

In the case of `CCCCC/C=C\C/C=C\C/C=C\C/C=C\CCCC(=O)NCCO` [anadamide, anandamide], the HEDG-7 agonist activity result is reported as “do not act as HEDG-7 agonists”.

Consider `CCCCCCCCCCCCCCC[C@@H](O)[C@@H](N)COP(=O)(O)O` [dihydro-S1P, dihydrosphingosine 1-phosphate], for which the HEDG-7 agonist activity result is recorded as “do not act as HEDG-7 agonists”.

Turning to lysophosphatidylcholine [LPC], the “SRE response (agonist specificity)” value (5 hr) was “failed to activate the SRE response”.
